pIC50: −log10 of the molar value. Where two headings read alike, the source gives them in different places.
How the values were obtained:
[1] = target: T1, HIF-1α (Homo sapiens, UniProt Q16665); assay: Analysis of HIF-1α protein expression (Western blot) in ARPE-19 cells under mixed hypoxic condition; type: cell-based; settings: concentration range at which HIF-1α expression is reduced by 50% vs untreated control
T1 construct: endogenous in cells; host or cells: ARPE-19 (ATCC CRL-2302)
Method: (§1) ARPE-19 cells (Human retinal pigment epithelial cells, ATCC CRL-2302) were cultured in DMEM/F12 (LM002-08, Welgene) medium containing 10% fetal bovine serum (FBS, 16000-044, Gibco) in an incubator at 37°C with 5% carbon dioxide. When the cells grew sufficiently, they were cultured in experimental culture dishes for protein isolation and medium supernatant acquisition.
(§2) Cells were detached from the culture dish using TrypLE™ Express (Gibco). After centrifugation at 1000 rpm for 3 minutes, the supernatant was removed. The cells were counted and seeded into new culture dishes. Normoxic conditions were maintained by culturing the cells in a 37°C incubator with 5% carbon dioxide, and hypoxic conditions were maintained by culturing the cells in a hypoxic incubator with 1% oxygen, 5% carbon dioxide, and 94% nitrogen gas.
In a disease of macular degeneration, hypoxia is a very important condition, and since the expression of downstream genes is regulated by HIF-1α, a transcription factor that is stabilized in hypoxic conditions, the following experiment was conducted to confirm this.
Mixed hypoxic condition was used for HIF-1α stability experiments, in which hypoxia was induced with 1% oxygen and the stability of HIF-1α was enhanced by treatment with cobalt chloride (CoCl2).
The compounds of each Example were diluted to 0.1 nM, 1 nM, 3 nM, 10 nM, 30 nM, 100 nM, 300 nM, 1 µM, and 10 µM in DMEM/F12 medium without fetal bovine serum, pretreated for 16 hours or 2 hours, and cultured for 1 hour or 24 hours in a mixed hypoxic condition. The cell medium was discarded, and protein lysates were obtained by rapidly treating with protein lysis buffer (RIPA Lysis and Extraction buffer, Thermo Fisher Scientific). LDS (4X Bolt ™ LDS Sample buffer) and reducing agent (10X Bolt ™ Sample Reducing Agent) were added together to the protein lysate, and heated at 70°C for 10 minutes. The lysate was separated by electrophoresis on a 4-12% Bis-Tris gel, transferred to a PVDF membrane, and blocked with 3% BSA (Albumin, Bovine, Fraction V, MPbio). The membrane was incubated overnight at 4°C with a mixture of anti-HIF-1α (ab179483, abcam) and anti-b-actin (MA515739, Invitrogen) antibodies at a ratio of 1:4000. The following day, the membrane was treated with a peroxidase-conjugated secondary antibody for 1 hour at room temperature, and the target protein was expressed using an ECL solution (Clarity ™ Western ECL substrate, Bio-rad) and quantified.
Based on the results of the expression level of HIF-1α in cells treated with compounds diluted from 10 µM to 0.1 nM, the concentration range of the compound at which the expression level of HIF-1α was reduced by 50% or less compared to the untreated control group was derived.

[2] = tested on: VEGF; assay: Evaluation of VEGF protein secretion level (Human VEGF ELISA) in ARPE-19 cell medium under hypoxic conditions; type: cell-based
Method: as §1, §2
The expression of the downstream gene, angiogenesis inducer VEGF, is regulated by HIF-1α, a major transcription factor under hypoxic conditions, and the level of secreted VEGF protein can be quantitatively confirmed through ELISA (Enzyme Linked Immunosorbent Assay, Human VEGF Quantikine ELISA Kit, R&D systems). For this purpose, the following experiment was conducted.
The compounds of each Example were diluted to 0.1 nM, 1 nM, 3 nM, 10 nM, 30 nM, 100 nM, 300 nM, 1 µM and 10 µM in DMEM/F12 medium containing 1% fetal bovine serum, pretreated for 2 hours, and cultured for 24 hours under hypoxic conditions to obtain the cell medium supernatant. The supernatant was centrifuged at 1000 rpm for 3 minutes, and a specific amount was treated with a VEGF ELISA assay kit and the absorbance value was measured at 450 nm to quantitatively confirm the level of VEGF protein (see Table 1 below).
Based on the results of secreted VEGF protein expression levels in cell media treated with compounds diluted at concentrations ranging from 10 µM to 0.1 nM, the concentration range of the compound at which the secreted VEGF protein level was reduced by 50% or less compared to the untreated control group was derived.

[3] = mixed hypoxic condition (1% oxygen + CoCl2) for 1 hour, read-out: IC50 HIF-1α Hypoxia (1 hour)
[4] = ARPE-19 cells, pretreated 2 hours, 24 hours hypoxic conditions, secreted VEGF in medium supernatant by ELISA, concentration range reducing VEGF by 50% vs untreated control, read-out: IC50 VEGF
[5] = ARPE-19 cells, pretreated 2 hours, 24 hours hypoxic conditions, ELISA, read-out: concentration at which the secreted VEGF protein level was suppressed to less than 50%
[6] = Experimental Example 2 (HIF-1α Western blot), read-out: concentration at which the expression level of VEGF was suppressed to less than 50%

T1 sequence (Q16665 whole entry): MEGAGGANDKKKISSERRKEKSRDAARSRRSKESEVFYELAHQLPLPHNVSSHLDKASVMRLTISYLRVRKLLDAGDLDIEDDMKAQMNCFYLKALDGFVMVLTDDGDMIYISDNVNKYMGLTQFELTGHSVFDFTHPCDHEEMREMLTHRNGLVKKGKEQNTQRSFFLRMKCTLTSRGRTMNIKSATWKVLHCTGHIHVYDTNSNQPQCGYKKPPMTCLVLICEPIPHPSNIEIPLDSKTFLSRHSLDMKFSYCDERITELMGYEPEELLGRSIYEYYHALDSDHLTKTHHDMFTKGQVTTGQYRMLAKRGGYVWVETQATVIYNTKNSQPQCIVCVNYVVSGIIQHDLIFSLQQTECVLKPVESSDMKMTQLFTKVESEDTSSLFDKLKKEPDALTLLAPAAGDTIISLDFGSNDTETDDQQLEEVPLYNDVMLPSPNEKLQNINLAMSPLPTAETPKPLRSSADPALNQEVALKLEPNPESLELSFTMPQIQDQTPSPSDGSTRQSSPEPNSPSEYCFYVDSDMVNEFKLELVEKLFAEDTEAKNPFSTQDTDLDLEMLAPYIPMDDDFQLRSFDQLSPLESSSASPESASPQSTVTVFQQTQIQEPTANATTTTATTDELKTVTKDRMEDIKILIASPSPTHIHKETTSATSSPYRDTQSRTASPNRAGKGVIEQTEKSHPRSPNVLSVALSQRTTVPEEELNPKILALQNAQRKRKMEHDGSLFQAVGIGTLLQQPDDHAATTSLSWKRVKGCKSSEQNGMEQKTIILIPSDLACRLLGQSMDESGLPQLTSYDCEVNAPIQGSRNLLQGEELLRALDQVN

| Structure (SMILES) | DC50 [1, 3] [nM] | pIC50 [2, 4] | pIC50 [2, 5] | pIC50 [2, 6] | DC50 ([1]; values marked * in the table, mixed hypoxic condition (1% oxygen + CoCl2) for 24 hours, read-out: IC50 HIF-1α, Hypoxia(24h)) [nM] |
| --- | --- | --- | --- | --- | --- |
| CS(=O)(=O)c1ccc(-n2cc(-c3cc(F)cc(CNC(=O)c4ncnc5nc(C6CCCC6)[nH]c45)c3)cn2)cc1 [Example 28, 8-Cyclopentyl-N-(3-fluoro-5-(1-(4-(methylsulfonyl)phenyl)-1H-pyrazol-4-yl)benzyl)-7H-purine-6-carboxamide] | < 100 | 6.00 to 7.00 |  |  |  |
| O=C(NCc1cc(F)cc(-c2cnn(Cc3cccc(C(F)(F)F)c3)c2)c1)c1ncnc2nc(C3CCCC3)[nH]c12 [Example 29, 8-Cyclopentyl-N-(3-fluoro-5-(1-(3-(trifluoromethyl)benzyl)-1H-pyrazol-4-yl)benzyl)-7H-purine-6-carboxamide] | < 100 | 6.00 to 7.00 |  |  |  |
| O=C(NCc1cc(F)cc(-c2cnn(-c3ccccn3)c2)c1)c1ncnc2nc(C3CCCC3)[nH]c12 [Example 30, 8-Cyclopentyl-N-(3-fluoro-5-(1-(pyridin-2-yl)-1H-pyrazol-4-yl)benzyl)-7H-purine-6-carboxamide] | < 100 | 6.00 to 7.00 |  |  |  |
| O=C(NCc1cc(F)cc(-c2cnn(-c3cncnc3)c2)c1)c1ncnc2nc(C3CCCC3)[nH]c12 [Example 32, 8-Cyclopentyl-N-(3-fluoro-5-(1-(pyrimidin-5-yl)-1H-pyrazol-4-yl)benzyl)-7H-purine-6-carboxamide] | < 100 | 6.00 to 7.00 |  |  |  |
| COc1ccccc1Nc1cc(F)cc(CNC(=O)c2ncnc3nc(C4CCCC4)[nH]c23)c1 [Example 33, 8-Cyclopentyl-N-(3-fluoro-5-((2-methoxyphenyl)amino)benzyl)-7H-purine-6-carboxamide] | < 100 | 6.00 to 7.00 |  |  |  |
| COc1cccc(Nc2cc(F)cc(CNC(=O)c3ncnc4nc(C5CCCC5)[nH]c34)c2)c1 [Example 34, 8-Cyclopentyl-N-(3-fluoro-5-((3-methoxyphenyl)amino)benzyl)-7H-purine-6-carboxamide] | < 100 | 6.00 to 7.00 |  |  |  |
| COc1ccc(Nc2cc(F)cc(CNC(=O)c3ncnc4nc(C5CCCC5)[nH]c34)c2)cc1 [Example 35, 8-Cyclopentyl-N-(3-fluoro-5-((4-methoxyphenyl)amino)benzyl)-7H-purine-6-carboxamide] | < 100 | 6.00 to 7.00 |  |  |  |
| COc1ccc(Nc2cc(F)cc(CNC(=O)c3ncnc4nc(C5CCCC5)n(C)c34)c2)cc1 [Example 36, 8-Cyclopentyl-N-(3-fluoro-5-((4-methoxyphenyl)amino)benzyl)-7-methyl-7H-purine-6-carboxamide] | < 100 | 6.00 to 7.00 |  |  |  |
| O=C(NCc1cc(F)cc(-c2cnsc2)c1)c1ncnc2nc(C3CCCC3)[nH]c12 [Example 38, 8-Cyclopentyl-N-(3-fluoro-5-(isothiazol-4-yl)benzyl)-7H-purine-6-carboxamide] | < 100 | 6.00 to 7.00 |  |  |  |

Now from value to compound:

| DC50 [1, 3] [nM] | pIC50 [2, 4] | pIC50 [2, 5] | pIC50 [2, 6] | DC50 ([1]; values marked * in the table, mixed hypoxic condition (1% oxygen + CoCl2) for 24 hours, read-out: IC50 HIF-1α, Hypoxia(24h)) [nM] | Structure (SMILES) |
| --- | --- | --- | --- | --- | --- |
| < 100 | 6.00 to 7.00 |  |  |  | O=C(NCc1cc(F)cc(Nc2ccncc2)c1)c1ncnc2nc(C3CCCC3)[nH]c12 [Example 16, 8-Cyclopentyl-N-(3-fluoro-5-(pyridin-4-ylamino)benzyl)-7H-purine-6-carboxamide] |
| < 100 | 6.00 to 7.00 |  |  |  | O=C(NCc1cc(F)cc(Nc2cccc(C(F)(F)F)c2)c1)c1ncnc2nc(C3CCCC3)[nH]c12 [Example 17, 8-Cyclopentyl-N-(3-fluoro-5-((3-(trifluoromethyl)phenyl)amino)benzyl)-7H-purine-6-carboxamide] |
| < 100 | 6.00 to 7.00 |  |  |  | CN(C)c1ccc(Nc2cc(F)cc(CNC(=O)c3ncnc4nc(C5CCCC5)[nH]c34)c2)cc1 [Example 18, 8-Cyclopentyl-N-(3-((4-(dimethylamino)phenyl)amino)-5-fluorobenzyl)-7H-purine-6-carboxamide] |
| < 100 | 6.00 to 7.00 |  |  |  | CS(=O)(=O)c1ccc(Nc2cc(F)cc(CNC(=O)c3ncnc4nc(C5CCCC5)[nH]c34)c2)cc1 [Example 19, 8-Cyclopentyl-N-(3-fluoro-5-((4-(methylsulfonyl)phenyl)amino)benzyl)-7H-purine-6-carboxamide] |
| < 100 | 6.00 to 7.00 |  |  |  | O=C(NCc1cc(F)cc(Nc2ccc(Cl)cc2F)c1)c1ncnc2nc(C3CCCC3)[nH]c12 [Example 20, N-(3-((4-chloro-2-fluorophenyl)amino)-5-fluorobenzyl)-8-cyclopentyl-7H-purine-6-carboxamide] |
| < 100 | 6.00 to 7.00 |  |  |  | O=C(NCc1cc(F)cc(Nc2ccc(F)cc2)c1)c1ncnc2nc(C3CCCC3)[nH]c12 [Example 21, 8-Cyclopentyl-N-(3-fluoro-5-((4-fluorophenyl)amino)benzyl)-7H-purine-6-carboxamide] |
| < 100 | 6.00 to 7.00 |  |  |  | N#Cc1cccc(-n2cc(-c3cc(F)cc(CNC(=O)c4ncnc5nc(C6CCCC6)[nH]c45)c3)cn2)c1 [Example 23, N-(3-(1-(3-Cyanophenyl)-1H-pyrazol-4-yl)-5-fluorobenzyl)-8-cyclopentyl-7H-purine-6-carboxamide] |
| < 100 | 6.00 to 7.00 |  |  |  | CS(=O)(=O)c1ccc(Cn2cc(-c3cc(F)cc(CNC(=O)c4ncnc5nc(C6CCCC6)[nH]c45)c3)cn2)cc1 [Example 24, 8-Cyclopentyl-N-(3-fluoro-5-(1-(4-(methylsulfonyl)benzyl)-1H-pyrazol-4-yl)benzyl)-7H-purine-6-carboxamide] |
| < 100 | 6.00 to 7.00 |  |  |  | COc1ccc(-n2cc(-c3cc(F)cc(CNC(=O)c4ncnc5nc(C6CCCC6)[nH]c45)c3)cn2)cc1 [Example 25, 8-Cyclopentyl-N-(3-fluoro-5-(1-(4-methoxyphenyl)-1H-pyrazol-4-yl)benzyl)-7H-purine-6-carboxamide] |
| < 100 | 6.00 to 7.00 |  |  |  | O=C(NCc1cc(F)cc(-c2cnn(-c3ccc(C(F)(F)F)cc3)c2)c1)c1ncnc2nc(C3CCCC3)[nH]c12 [Example 26, 8-Cyclopentyl-N-(3-fluoro-5-(1-(4-(trifluoromethyl)phenyl)-1H-pyrazol-4-yl)benzyl)-7H-purine-6-carboxamide] |
| < 100 | 6.00 to 7.00 |  |  |  | O=C(NCc1cc(F)cc(-c2cnn(-c3ccc(F)cc3)c2)c1)c1ncnc2nc(C3CCCC3)[nH]c12 [Example 27, 8-Cyclopentyl-N-(3-fluoro-5-(1-(4-fluorophenyl)-1H-pyrazol-4-yl)benzyl)-7H-purine-6-carboxamide] |
| < 100 | > 7.00 | > 7.00 | > 7.00 |  | O=C(NCc1cc(F)cc(-c2cnn(-c3cccnc3)c2)c1)c1ncnc2nc(C3CCCC3)[nH]c12 [Example 31, 8-Cyclopentyl-N-(3-fluoro-5-(1-(pyridin-3-yl)-1H-pyrazol-4-yl)benzyl)-7H-purine-6-carboxamide] |
|  | > 7.00 | > 7.00 | > 7.00 | < 100 | NC(=O)c1cccc(-n2cc(-c3cc(F)cc(CNC(=O)c4ncnc5nc(C6CCCC6)[nH]c45)c3)cn2)c1 [Example 37, N-(3-(1-(3-carbamoylphenyl)-1H-pyrazol-4-yl)-5-fluorobenzyl)-8-cyclopentyl-7H-purine-6-carboxamide] |
